Source: patent publication US9617602B2, “Methods and compositions for determining resistance to androgen receptor therapy” (Aragon Pharmaceuticals, Inc., priority 2012, dated 2017)

How the values were obtained:
Assay type in all cases: cell-based, human
[1] = tested on: LNCaP ARN-509r2 cells; assay: Endogenous gene transcriptional assay (real-time PCR of androgen responsive genes); conditions: 1 nM R1881 or 30 μM compound, vehicle=1.00
Description: (§1) Total RNA was isolated using the Aurum™ total RNA isolation kit (BIO-RAD, Hercules, Calif.). RNA (1 μg) was reverse transcribed using the iScript cDNA synthesis kit (BIO-RAD, Hercules, Calif.) to produce cDNA. Real-time PCR was performed using the Applied Biosystems 7900HT instrument and SYBR Green PCR Master Mix (Applied Biosystems, Foster City, Calif.). PCR reactions were performed in 6 μL according to the manufacturer's protocol and a thermocycle protocol of 95° C. for 10 minutes followed by 40 cycles of 95° C. for 15 seconds and 58° C. for 1 minute. Androgen responsive gene (PSA, SLUG, TMPRSS2, STEAP4, FKBP5, ORM1, NOV, FASN, NKX3.1, AMIGO2, BDNF, CAMK2N1, HPGD, NCAPD3, PLD1) expression was normalized to GAPDH expression and expressed relative to vehicle treatment of the parental cell line.
(§2) Gene expression was normalized to GAPDH as described above.

[2] = tested on: LNCaP ARN-509r1 cells; assay: as above; conditions: 1 nM R1881 or 30 μM compound, vehicle=1.00
Description: as §1, §2

[3] = tested on: Class 1 resistant cell lines; assay: Transcriptional reporter assay (probasin-luciferase); conditions: for Agonist Transcriptional Reporter Assay (% Max Activity) / Antagonist Transcriptional Reporter Assay (% Max Activity): Class 1; for Agonist Transcriptional Reporter Assay (% Max Activity): [Antagonists] = 50 μM; for Antagonist Transcriptional Reporter Assay (% Max Activity): [Antagonists] = 50 μM in presence of R1881; for Antagonist activity in probasin-luciferase reporter, Class 1 resistant cells: decrease in luciferase activity relative to no treatment controls
Description: (§3) With the exception of the LNCaP/AR(cs)-Luc cells that contain an integrated androgen responsive reporter, cells were transiently transfected using Lipofectin® (Life Technologies) according to the manufacturer's protocol. […] Following transfection, the cells were incubated for 4 hours.
(§4) Following 48 hour incubation the medium was removed and the cells were lysed in 40 μL of lysis buffer (25 mM Tris Phosphate, 2 mM CDTA, 10% Glycerol, 0.5% Triton X-100, 2 mM DTT).

[4] = tested on: Class 2 resistant cell lines; assay: as above; conditions: for Agonist Transcriptional Reporter Assay (% Max Activity) / Antagonist Transcriptional Reporter Assay (% Max Activity): Class 2; for Agonist Transcriptional Reporter Assay (% Max Activity): [Antagonists] = 50 μM; for Antagonist Transcriptional Reporter Assay (% Max Activity): [Antagonists] = 50 μM in presence of R1881
Description: as §3, §4

[5] = tested on: LNCaP cells; assay: Endogenous gene transcriptional assay (real-time PCR of androgen responsive genes); conditions: 1 nM R1881 or 30 μM compound, vehicle=1.00
Description: as §1, §2

[6] = tested on: Class 2 MDV3100- and ARN-509-resistant cell lines; assay: Proliferation assay (CellTiter-Glo), agonist and antagonist mode; conditions: for Antagonism of androgen dependent growth of Class 2 resistant lines: antagonist mode
[7] = tested on: LNCaP/AR-Luc cells; assay: Endogenous gene transcriptional assay (real-time PCR of androgen responsive genes); conditions: 1 nM R1881 or 30 μM compound, vehicle=1.00
Description: as §1, §2

[8] = tested on: Class 1 ARN-509- and MDV3100-resistant cell lines; assay: Proliferation assay (CellTiter-Glo), agonist and antagonist mode; conditions: for Ligand independent growth of Class 1 cells in presence of compound: absence of added androgens
[9] = tested on: LNCaP/AR(cs) cells; assay: Transcriptional reporter assay (probasin-luciferase); conditions: for Agonist Transcriptional Reporter Assay (% Max Activity): [Antagonists] = 50 μM; for Antagonist Transcriptional Reporter Assay (% Max Activity): [Antagonists] = 50 μM in presence of R1881
Description: as §3, §4

[10] = Homo sapiens, 168 h, read-out: Antagonist Proliferation Assay (% Viability)

## CNC(=O)c1ccc(N2C(=S)N(c3cnc(C#N)c(C(F)(F)F)c3)C(=O)C23CCC3)cc1F [ARN-509]
[1]
  AMIGO2 gene expression: 0.67
  BDNF gene expression: 1.04
  CAM2KN1 gene expression: 0.46
  FASN gene expression: 0.98
  FKBP5 gene expression: 8.00
  HPGD gene expression: 1.49
  NKX3.1 gene expression: 3.73
  NOV gene expression: 1.39
  ORM1 gene expression: 3.94
  PLD1 gene expression: 0.81
  PSA gene expression: 1.91
  SLUG gene expression: 1.31
  STEAP4 gene expression: 1.45
  TMPRSS2 gene expression: 3.07
[2]
  AMIGO2 gene expression: 0.62
  BDNF gene expression: 0.90
  CAM2KN1 gene expression: 0.37
  FASN gene expression: 1.04
  FKBP5 gene expression: 2.58
  HPGD gene expression: 2.36
  NCAPD3 gene expression: 1.29
  NKX3.1 gene expression: 6.54
  NOV gene expression: 1.40
  ORM1 gene expression: 15.89
  PLD1 gene expression: 0.33
  PSA gene expression: 32.67
  SLUG gene expression: 4.66
  STEAP4 gene expression: 3.03
  TMPRSS2 gene expression: 10.20
[3]
  Agonist Transcriptional Reporter Assay (% Max Activity): + (‘+’ = <5)
  Antagonist Transcriptional Reporter Assay (% Max Activity): ++ (‘++’ = >5)
  Antagonist activity in probasin-luciferase reporter, Class 1 resistant cells: effective antagonists
[4]
  Agonist activity in probasin-luciferase reporter assay, Class 2 resistant cells: no agonist activity
  Agonist Transcriptional Reporter Assay (% Max Activity): + (‘+’ = <5)
  Antagonist Transcriptional Reporter Assay (% Max Activity): + (‘+’ = <5)
[5]
  AMIGO2 gene expression: 1.12
  BDNF gene expression: 1.09
  CAM2KN1 gene expression: 1.17
  FASN gene expression: 1.34
  FKBP5 gene expression: 0.99
  HPGD gene expression: 1.48
  NKX3.1 gene expression: 0.90
  NOV gene expression: 1.73
  ORM1 gene expression: 0.71
  PLD1 gene expression: 1.09
  PSA gene expression: 0.66
  SLUG gene expression: 1.27
  STEAP4 gene expression: 0.78
  TMPRSS2 gene expression: 0.77
[6]; Class 2, [Antagonists] = 10 μM, 7 days
  Agonist Proliferation Assay (% Viability): ++ (‘++’ = >30)
[6]; [10]
  viability at 0.0001 µM: > 30%
[6]; agonist mode
  Stimulation of proliferation in Class 2 cell lines: can stimulate proliferation
[6]
  Antagonism of androgen dependent growth of Class 2 resistant lines: only partially antagonized
[7]
  AMIGO2 gene expression: 1.13
  BDNF gene expression: 1.17
  CAM2KN1 gene expression: 1.13
  FASN gene expression: 1.08
  FKBP5 gene expression: 1.16
  HPGD gene expression: 1.88
  NKX3.1 gene expression: 1.14
  NOV gene expression: 2.55
  ORM1 gene expression: 1.27
  PLD1 gene expression: 1.45
  PSA gene expression: 0.60
  SLUG gene expression: 1.13
  STEAP4 gene expression: 0.88
  TMPRSS2 gene expression: 0.74
[8]
  Effect on growth inhibitory activity of R1881 in Class 1 cells: antagonized
  Ligand independent growth of Class 1 cells in presence of compound: unaltered
[8]; [10]
  viability at 0.0001 µM: > 30%
[9]
  Agonist Transcriptional Reporter Assay (% Max Activity): + (‘+’ = <5)
  Antagonist Transcriptional Reporter Assay (% Max Activity): + (‘+’ = <5)

## CNC(=O)c1ccc(N2C(=S)N(c3ccc(C#N)c(C(F)(F)F)c3)C(=O)C2(C)C)cc1F [Enzalutamide, enzalutamide]
[1]
  AMIGO2 gene expression: 0.63
  BDNF gene expression: 0.77
  CAM2KN1 gene expression: 0.38
  FASN gene expression: 0.93
  FKBP5 gene expression: 3.41
  HPGD gene expression: 4.56
  NCAPD3 gene expression: 1.35
  NKX3.1 gene expression: 6.28
  NOV gene expression: 0.71
  ORM1 gene expression: 23.75
  PLD1 gene expression: 0.29
  PSA gene expression: 2.48
  SLUG gene expression: 9.58
  TMPRSS2 gene expression: 4.86
[2]
  AMIGO2 gene expression: 0.99
  CAM2KN1 gene expression: 0.59
  FASN gene expression: 1.53
  FKBP5 gene expression: 9.45
  HPGD gene expression: 10.20
  NCAPD3 gene expression: 3.12
  NOV gene expression: 1.39
  ORM1 gene expression: 205.07
  PLD1 gene expression: 0.24
  PSA gene expression: 57.68
  SLUG gene expression: 42.52
  STEAP4 gene expression: 32.22
  TMPRSS2 gene expression: 23.75
[3]
  Agonist Transcriptional Reporter Assay (% Max Activity): + (‘+’ = <5)
  Antagonist Transcriptional Reporter Assay (% Max Activity): + (‘+’ = <5)
  Antagonist activity in probasin-luciferase reporter, Class 1 resistant cells: effective antagonists
[4]
  Agonist activity in probasin-luciferase reporter assay, Class 2 resistant cells: weak partial agonist
  Agonist Transcriptional Reporter Assay (% Max Activity): ++ (‘++’ = >5)
  Antagonist Transcriptional Reporter Assay (% Max Activity): ++ (‘++’ = >5)
[5]
  AMIGO2 gene expression: 1.20
  BDNF gene expression: 0.85
  CAM2KN1 gene expression: 1.39
  FASN gene expression: 1.24
  HPGD gene expression: 1.78
  NCAPD3 gene expression: 1.20
  NKX3.1 gene expression: 1.66
  NOV gene expression: 2.57
  PLD1 gene expression: 0.70
  PSA gene expression: 1.69
  SLUG gene expression: 2.35
  TMPRSS2 gene expression: 1.68
[6]
  Antagonism of androgen dependent growth of Class 2 resistant lines: only partially antagonized
[7]
  AMIGO2 gene expression: 1.44
  BDNF gene expression: 1.08
  CAM2KN1 gene expression: 1.51
  FASN gene expression: 1.40
  FKBP5 gene expression: 1.46
  HPGD gene expression: 2.51
  NCAPD3 gene expression: 1.33
  NKX3.1 gene expression: 1.68
  ORM1 gene expression: 1.39
  PLD1 gene expression: 1.33
  PSA gene expression: 0.44
  SLUG gene expression: 2.73
  STEAP4 gene expression: 1.23
  TMPRSS2 gene expression: 1.35
[8]
  Effect on growth inhibitory activity of R1881 in Class 1 cells: antagonized
  Ligand independent growth of Class 1 cells in presence of compound: unaltered
[9]
  Agonist Transcriptional Reporter Assay (% Max Activity): + (‘+’ = <5)
  Antagonist Transcriptional Reporter Assay (% Max Activity): + (‘+’ = <5)
